The target of one experiment is D(3) dopamine receptor (Rattus norvegicus, UniProt P19020).
The target of experiment [1] is Sodium-dependent dopamine transporter (Rattus norvegicus) (UniProt P23977). Put plainly: Inhibition of dopamine uptake from dopamine uptake site.
The subject of experiment [2] is Rattus norvegicus. Put plainly: Effect of compound on […], […] at 30 umol/kg upon subcutaneous administration; Catalepsy = 0/4. The experiment is classed as functional.
In experiment [3] the test system is Rattus norvegicus. Put plainly: Effect of compound on […], […] at 1 umol/kg upon subcutaneous administration; Catalepsy = 0/4. The class given is functional.
In experiment [4] the test system is Rattus norvegicus. As to the kind of experiment: Effect of compound on apomorphine induced locomotor hyperactivity (APO-induced LMA), […] at 10 umol/kg upon subcutaneous administration; LMA (locomotor activity). The experiment is classed as functional.
Experiment [5] concerns Rattus norvegicus. Put plainly: Effect of compound on apomorphine induced locomotor hyperactivity (APO-induced LMA), […] at 30 umol/kg upon subcutaneous administration; LMA (locomotor activity). The experiment is classed as functional.
Experiment [6] deals with T1, Serotonin 2 (5-HT2) receptor (Rattus norvegicus, UniProt P30994+P08909+P14842).
Description: Binding affinity which represents concentration giving half-maximal inhibition of [3H]ketanserin binding to 5-hydroxytryptamine 2 receptor rat tissue homogenate
The target of experiment [7] is T1, Serotonin 2 (5-HT2) receptor. This is another data set of the same source.
Description: pKi value for 5-hydroxytryptamine 2 receptor binding site
Experiment [8] relates to Rattus norvegicus. As to the kind of experiment: Effect of compound on […], […] at 10 umol/kg upon subcutaneous administration; Catalepsy = 0/4. The class given is functional.
The test system of experiment [9] is Rattus norvegicus. As to the kind of experiment: Effect of compound on apomorphine induced locomotor hyperactivity (APO-induced LMA), […] at 1 umol/kg upon subcutaneous administration; LMA (locomotor activity). The class given is functional.
For experiment [10], the system named is Rattus norvegicus. Put plainly: Effect of compound on […], […] at 10 umol/kg upon subcutaneous administration; Catalepsy = 1/4. The experiment is classed as functional.
Experiment [11] has as its system Rattus norvegicus. Put plainly: Effect of compound on apomorphine induced locomotor hyperactivity (APO-induced LMA), […] at 3 umol/kg upon subcutaneous administration; LMA (locomotor activity). The experiment is classed as functional.
The test system of experiment [12] is Rattus norvegicus. Put plainly: Effect of compound on […], […] at 30 umol/kg upon subcutaneous administration; Catalepsy = 4/4. The class given is functional.
In experiment [13] the test system is Rattus norvegicus. Put plainly: Effect of compound on […], […] at 3 umol/kg upon subcutaneous administration; Catalepsy = 0/4. The experiment is classed as functional.

Chain of D(3) dopamine receptor (P19020 whole entry): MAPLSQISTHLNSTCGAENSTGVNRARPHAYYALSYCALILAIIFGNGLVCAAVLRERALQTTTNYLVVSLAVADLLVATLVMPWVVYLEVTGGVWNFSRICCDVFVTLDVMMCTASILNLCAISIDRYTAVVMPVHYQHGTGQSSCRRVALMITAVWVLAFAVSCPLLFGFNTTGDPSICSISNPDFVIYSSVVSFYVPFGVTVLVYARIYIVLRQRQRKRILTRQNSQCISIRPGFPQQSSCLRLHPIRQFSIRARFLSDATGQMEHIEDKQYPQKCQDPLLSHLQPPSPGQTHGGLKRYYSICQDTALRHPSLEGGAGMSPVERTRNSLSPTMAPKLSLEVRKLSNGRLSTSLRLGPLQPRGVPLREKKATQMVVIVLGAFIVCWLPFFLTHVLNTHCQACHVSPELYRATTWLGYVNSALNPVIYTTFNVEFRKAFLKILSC
Chain of Sodium-dependent dopamine transporter (Rattus norvegicus) (P23977 whole entry, looked up): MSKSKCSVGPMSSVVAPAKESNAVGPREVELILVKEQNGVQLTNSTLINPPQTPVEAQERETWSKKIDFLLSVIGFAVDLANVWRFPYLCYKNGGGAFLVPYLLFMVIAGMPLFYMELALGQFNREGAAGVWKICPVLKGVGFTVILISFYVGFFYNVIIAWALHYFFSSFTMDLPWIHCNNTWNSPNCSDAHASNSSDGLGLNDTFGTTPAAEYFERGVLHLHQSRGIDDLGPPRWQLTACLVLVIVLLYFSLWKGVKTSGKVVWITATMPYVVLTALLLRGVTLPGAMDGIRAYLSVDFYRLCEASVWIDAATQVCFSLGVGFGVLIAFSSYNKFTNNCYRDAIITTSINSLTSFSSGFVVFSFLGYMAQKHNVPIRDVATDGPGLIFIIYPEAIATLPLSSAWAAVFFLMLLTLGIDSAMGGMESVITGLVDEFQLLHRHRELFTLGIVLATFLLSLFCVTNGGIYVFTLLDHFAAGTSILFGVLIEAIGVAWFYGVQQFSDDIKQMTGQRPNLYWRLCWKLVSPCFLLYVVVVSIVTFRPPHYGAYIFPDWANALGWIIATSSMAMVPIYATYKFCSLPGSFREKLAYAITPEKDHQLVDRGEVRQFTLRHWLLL
Description for D(3) dopamine receptor: Binding affinity which represents concentration giving half-maximal inhibition of [3H]7-OH-DPAT binding to Dopamine receptor D3 in rat tissue homogenate

In turn, `CN1CCN(C2Cn3cccc3Sc3ccc(Cl)cc32)CC1` (racemic) showed a Ki at D(3) dopamine receptor of 4.1 nM. In addition, the IC50 in experiment [1] was found to be 6500 nM.
As for `Cc1cc2c(s1)Nc1ccccc1N=C2N1CCN(C)CC1` [OLANZAPINE], the Catalepsy with Rattus norvegicus [2], in the experiment with Rattus norvegicus [3] and in the experiment on Rattus norvegicus [8] was 0 in each case. The LMA worked out at 47 in the experiment with Rattus norvegicus [4], 4 in the experiment on Rattus norvegicus [5] and 323 in the experiment with Rattus norvegicus [9]. The compound also yielded a Ki in experiment [6] of 12 nM. For the same compound, the “Log Ki” value in experiment [7] is given as -7.9.
Consider `CN1CCN(C2Cn3cccc3Sc3ccc(Cl)cc32)CC1.Cl.Cl` (racemic), for which the Catalepsy in the experiment on Rattus norvegicus [3] is reported as 0; in the experiment on Rattus norvegicus [10], 1; in the experiment on Rattus norvegicus [12], 4; in the experiment on Rattus norvegicus [13] it was 0. The LMA in the experiment with Rattus norvegicus [4] turned out to be 43; in the experiment on Rattus norvegicus [5], 39; in the experiment with Rattus norvegicus [11], 40; in the experiment on Rattus norvegicus [9], 877.

The values are drawn from ChEMBL document CHEMBL1131586, “New antipsychotic agents with serotonin and dopamine antagonist properties based on a pyrrolo[2,1-b][1,3]benzothiazepine structure” (J Med Chem, 1998).
